Laboratory results from patent US8815829B2, “3′-azido purine nucleotide prodrugs for treatment of viral infections” (priority 2008, dated 2014).
Where two headings read alike, the source gives them in different places.

Legend:
PBM cells [1] = assay: Cytotoxicity assay in PBM cells; assay type: cell-based, human; details: Homo sapiens, PBMC; Table 5; read-out: Toxicity IC50 PBM
[2] = tested on: HIV-1 T69SSS (M41L/T69SSS/L210W/T215Y); assay: microbe, parasite or virus in culture; assay type: cell-based; details: Human immunodeficiency virus 1, P4/R5, P4/R5 cells, mean ± standard deviation
Method: (§1) In a 96-well plate, two- or three-fold serial dilutions of an inhibitor were added to P4/R5 cells in triplicate. […] At 48 h post-infection, a cell lysis buffer and luminescent substrate (Gal-Screen; Tropix/Applied Biosystems) was added to each well, and relative light unit values were determined using a luminometer (ThermoLabSystems, Waltham, Mass.).
(§2) Virus stocks were prepared as described above. Drug susceptibility assays were performed using the single- and multiple-replication-cycle assays also described above.

HIV-1 K65R = assay: microbe, parasite or virus in culture; assay type: cell-based; details: Human immunodeficiency virus 1; P4/R5 cells, mean ± standard deviation
Method: as §1, §2

[3] = tested on: HIV-1 AZT2 (D67N/K70R/T215F/K219Q); assay: microbe, parasite or virus in culture; assay type: cell-based; details: Human immunodeficiency virus 1; P4/R5 cells, mean ± standard deviation
Method: as §1, §2

[4] = tested on: HIV-1 AZT3 (M41L/L210W/T215Y); assay: microbe, parasite or virus in culture; assay type: cell-based; details: Human immunodeficiency virus 1; P4/R5 cells, mean ± standard deviation
Method: as §1, §2

[5] = tested on: HIV-1 Q151Mc (A62V/V75I/F77L/F116Y/Q151M); assay: microbe, parasite or virus in culture; assay type: cell-based; details: Human immunodeficiency virus 1, P4/R5, P4/R5 cells, mean ± standard deviation
Method: as §1, §2

[6] = tested on: HIV-1 AZT9 (M41L/D67N/K70R/L210W/T215Y/K219Q); assay: microbe, parasite or virus in culture; assay type: cell-based; details: Human immunodeficiency virus 1; P4/R5 cells, mean ± standard deviation
Method: as §1, §2

HIV-1 L74V = assay: microbe, parasite or virus in culture; assay type: cell-based; details: Human immunodeficiency virus 1; P4/R5 cells, mean ± standard deviation
Method: as §1, §2

HIV-1 M184V = assay: microbe, parasite or virus in culture; assay type: cell-based; details: Human immunodeficiency virus 1; P4/R5 cells, mean ± standard deviation
Method: as §1, §2

[7] = tested on: HIV-1 AZT7 (M41L/D67N/K70R/T215F/K219Q); assay: microbe, parasite or virus in culture; assay type: cell-based; details: Human immunodeficiency virus 1; P4/R5 cells, mean ± standard deviation
Method: as §1, §2

HIV-2/pROD10 = assay: HIV-2 drug susceptibility in PBM cells; assay type: cell-based; details: Human immunodeficiency virus 2, PBMC
HIV-1/LAI = assay: Anti-HIV-1 assay in PBM cells; assay type: cell-based; details: Human immunodeficiency virus 1, PBMC, PBM cells; read-out: HIV-1/LAI (PBM) EC90
Method: Stock solutions (20-40 mM) of the compounds were prepared in sterile DMSO and then diluted to the desired concentration in growth medium. Cells were infected with the prototype HIV-1LAI at a multiplicity of infection of 0.01. Virus obtained from the cell supernatant was quantified on day 6 after infection by a reverse transcriptase assay using (rA)n·(dT)12-18 as template-primer. […] The antiviral EC50 and EC90 were obtained from the concentration-response curve using the median effective method described previously (see Chou T.-C. & Talalay P. Adv. Enzyme Regul. 1984, 22, 27-55; Belen'kii M. S. & Schinazi R. F. Antiviral Res. 1994, 25, 1-11).

WT (LAI) HIV-1 = assay: Single cycle assay in P4/R5 cells, WT HIV-1; assay type: cell-based; details: Human immunodeficiency virus 1, P4/R5, read-out: EC50 WT (LAI), P4/R5 cells, mean ± standard deviation
Method: as §1, §2

HBV = assay: Anti-HBV assay (AD-38 cell line); assay type: cell-based; details: Hepatitis B virus
Method: The anti-HBV activity of the compounds was determined by treating the AD-38 cell line carrying wild type HBV under the control of tetracycline (see Ladner S. K., Otto M. J., Barker C. S., Zaifert K., Wang G. H., Guo J. T., Seeger C. & King R. W. Antimicrob. Agents Chemother. 1997, 41, 1715-20). Removal of tetracycline from the medium [Tet (−)] results in the production of HBV. The levels of HBV in the culture supernatant fluids from cells treated with the compounds were compared with that of the untreated controls. Control cultures with tetracycline [Tet (+)] were also maintained to determine the basal levels of HBV expression.

CEM cells = assay: Cytotoxicity assay in CEM cells; assay type: cell-based, human; details: Homo sapiens, CCRF-CEM; Table 5; read-out: Toxicity IC50 CEM
Vero cells = assay: Cytotoxicity assay in Vero cells; assay type: cell-based; details: Chlorocebus sabaeus, Vero, read-out: Toxicity IC50 Vero
MT-2 cells = assay: Intracellular nucleotides formed in MT-2 cells; assay type: in vitro ADME
PBM cells [8] = details: human, 4 h, 50 μM
adenosine deaminase = assay: Adenosine deaminase assay (deamination of nucleosides); assay type: in vitro ADME; details: 50 μM, pH 7.4
Method: In order to determine if these 6-substituted compounds are converted to G analogs by the enzyme adenosine deaminase, a series of enzyme kinetics experiments were undertaken.
To determine the propensity for deamination of the APN nucleosides by adenosine deaminase, nucleoside compounds were incubated with the commercially available purified enzyme, and the reaction was followed spectrophotometrically. Reaction conditions were 50 mM potassium phosphate, pH 7.4, with 50 μM APN nucleoside in 0.5 mL at 25° C. Reaction time was 7 minutes with 0.002 units of enzyme and 120 minutes with 0.2 units of enzyme. (The unit definition of adenosine deaminase is one unit will deaminate 1.0 μmol of adenosine to inosine per minute at pH 7.5 at 25° C.) Deoxyadenosine was the positive control which was 59% deaminated under the given conditions in 7 minutes with 0.002 units of enzyme. Deoxyguanosine was the negative control. Optical density was measured at 265 nm or 285 nm. The difference in optical density between the beginning and the end of the experiment was divided by the extinction coefficient then multiplied by the volume of the reaction to determine the number of mols of substrate transformed into product. Mols of product were divided by mols of substrate equivalent to a 100% complete reaction then multiplied by 100 to obtain percent deamination. The limit of detection was 0.001 optical density units.

HSV-1 = HSV-1 drug susceptibility assay; assay type: cell-based; details: Human alphaherpesvirus 1
From the text: (§3) Agents Chemother. […] K., Otto, M. J., Schinazi, R. F. “Antiviral activities and cellular toxicities of modified 2′,3′-dideoxy-2′,3′-didehydrocytidine analogs” Antimicrob. Agents Chemother. 2002, 46, 3854-60. • ^cHSV-1 drug susceptibility assay was done as previously described in: Schinazi, R. F., Peters, J., Williams, C. C., Chance, D., Nahmias, A. J. “Effect of combinations of acyclovir with vidarabine or its 5′-monophosphate on herpes simplex virus in cell culture and in mice.” Antimicrob. Agents Chemother. 1982, 22, 499-507. • ^dHCV Replicon Assay^1: Huh 7 Clone B cells containing HCV Replicon RNA were seeded in a 96-well plate at 5000 cells/well, and the compounds were tested at 10 μM in triplicate immediately after seeding. Following five days incubation (37° C., 5% CO2), total cellular RNA was isolated by using versaGene RNA purification kit from Gentra. Replicon RNA and an internal control (TaqMan rRNA control reagents, Applied Biosystems) were amplified in a single step multiplex Real Time RT-PCR Assay. The antiviral effectiveness of the compounds was calculated by subtracting the threshold RT-PCR cycle of the test compound from the threshold RT-PCR cycle of the no-drug control (ΔCtHCV). A ΔCt of 3.3 equals a 1-log reduction (equal to 90% less starting material) in Replicon RNA levels. The cytotoxicity of the compounds was also calculated by using the ΔCt rRNA values. 77 (2′-Me-C) was used as the control. To determine EC90 and IC50 values^2, ΔCt: values were first converted into fraction of starting material^3 and then were used to calculate the % inhibition.

HCV Replicon RNA = assay: HCV Replicon Assay (Huh 7 Clone B cells); assay type: cell-based; details: Hepatitis C virus, Huh-7, 120 h, tested at 10 μM, five days
From the text: as §3

Row | Compound | IC50 (PBM cells [1]) | IC50 (CEM cells) | IC50 (Vero cells; Table 5) | EC50 (HSV-1) | EC90 (HSV-1) | EC50 (HCV Replicon RNA) | EC90 (HCV Replicon RNA) | also measured
1 | Cc1cn([C@H]2C[C@H](N=[N+]=[N-])[C@@H](CO)O2)c(=O)[nH]c1=O [AZT, 3′-azido-3′-deoxythymidine, reference compound] | > 100 µM |  |  |  |  |  |  | EC50 [2]: > 90 µM; EC50 (HIV-1 K65R): 0.163 ± 0.06 µM; EC50 [3]: 11.1 ± 4.3 µM; EC50 [4]: 2.85 ± 0.88 µM; EC50 [5]: > 90 µM; EC50 [6]: > 90 µM; EC50 (HIV-1 L74V): 0.156 ± 0.03 µM; EC50 (HIV-1 M184V): 0.095 ± 0.04 µM; EC50 [7]: > 90 µM; EC50 (HIV-2/pROD10): 0.0076 µM; EC90 (HIV-2/pROD10): 0.064 µM; EC90 (HIV-1/LAI): 0.02 µM; EC50 (WT (LAI) HIV-1): 0.126 ± 0.04 µM
2 | Nc1ccn([C@H]2CS[C@@H](CO)O2)c(=O)n1 [Compound 3TC, (−)-2′,3′-dideoxy-3′-thiacytidine, reference compound] | > 100 µM | > 100 µM | > 100 µM |  |  |  |  | EC90 (HBV): < 10 µM; EC50 (HIV-2/pROD10): 0.075 µM; EC90 (HIV-2/pROD10): 0.42 µM
3 | [N-]=[N+]=NC1C[C@H](n2cnc3c(O)nc(N)nc32)O[C@@H]1CO (stereo partly shown) [Compound 56, 3′-Azido-2′,3′-dideoxyguanosine] |  |  |  |  |  |  |  | concentration at which phosphorylation reaches steady state (MT-2 cells; MT-2, four different concentrations): 30 µM; major metabolite (PBM cells [8]): RFS-457-TP as the major metabolite
4 | [N-]=[N+]=N[C@H]1C[C@H](n2cnc3c(Cl)nc(N)nc32)O[C@@H]1CO [Compound 68, ((2S,3S,5R)-5-(2-amino-6-chloro-9H-purin-9-yl)-3-azidotetrahydrofuran-2-yl)methanol] |  |  |  |  |  |  |  | Deamination in 7 min (0.002 units Adenosine Deaminase) (adenosine deaminase; 7 min): 12.81 ± 1.57%; Deamination in 120 min (0.2 units Adenosine Deaminase) (adenosine deaminase; 120 min): 240.53 ± 5.86%; level of unchanged drug (MT-2 cells; MT-2 cells treated with drug for 30 min): Negligible levels of 6415 were detected; AZG-TP levels compared with AZG treatment (MT-2 cells; MT-2 cells, 4 hr at 50 μM): higher; nucleotides detected (LC/MS) (PBM cells [8]): detection of RFS-457-TP; species not detected (LC/MS) (PBM cells [8]): Neither Compound 6415 nor its phosphates were detected
5 | C=CCNc1nc(N)nc2c1ncn2[C@H]1CC(N=[N+]=[N-])[C@@H](CO)O1 (stereo partly shown) [drawing 47] | > 100 µM | > 100 µM | > 100 µM | > 100 µM | > 100 µM | > 10 µM | > 10 µM | 
6 | C=CCN(C)c1nc(N)nc2c1ncn2[C@H]1CC(N=[N+]=[N-])[C@@H](CO)O1 (stereo partly shown) [drawing 48] | > 100 µM | 27 µM |  | > 100 µM | > 100 µM | > 10 µM | > 10 µM | IC50 (Vero cells): 32 µM
7 | [N-]=[N+]=NC1C[C@H](n2cnc3c(NCCCCCO)nc(N)nc32)O[C@@H]1CO (stereo partly shown) [drawing 49] | > 100 µM | > 100 µM | > 100 µM | > 100 µM | > 100 µM | > 10 µM | > 10 µM | 
8 | CC(C)(CO)Nc1nc(N)nc2c1ncn2[C@H]1CC(N=[N+]=[N-])[C@@H](CO)O1 (stereo partly shown) [drawing 50] | > 100 µM | > 100 µM | > 100 µM | > 100 µM | > 100 µM | > 10 µM | > 10 µM | 
9 | CC(CO)Nc1nc(N)nc2c1ncn2[C@H]1CC(N=[N+]=[N-])[C@@H](CO)O1 (stereo partly shown) [drawing 51] | > 100 µM | > 100 µM | > 100 µM | > 100 µM | > 100 µM | > 10 µM | > 10 µM | 
10 | CN(C)c1nc(N)nc2c1ncn2[C@H]1CC(N=[N+]=[N-])[C@@H](CO)O1 (stereo partly shown) [drawing 53] | > 100 µM | > 100 µM | > 100 µM | > 100 µM | > 100 µM | > 10 µM | > 10 µM | 
11 | [N-]=[N+]=NC1C[C@H](n2cnc3c(NC4CC4)nc(N)nc32)O[C@@H]1CO (stereo partly shown) [drawing 56] | > 100 µM | > 100 µM | > 100 µM | > 100 µM | > 100 µM | > 10 µM | > 10 µM | 
12 | COCCNc1nc(N)nc2c1ncn2[C@H]1CC(N=[N+]=[N-])[C@@H](CO)O1 (stereo partly shown) [drawing 58] | > 100 µM | > 100 µM | > 100 µM |  |  | > 10 µM | > 10 µM | 
